What was measured:
[1] = test system: EGFR; experiment: EGFR transcriptional level; format: cell-based
Procedure: Total RNA was extracted using TRIzol (Invitrogen, Carlsbad, Calif., USA). cDNA was synthesized from 2 μg of total RNA, using oligo-dT and MMLV HP reverse transcriptase (Epicentre, Madison, Wis., USA) according to the manufacturer's instruction. qRT-PCR was performed on an AriaMax Real-Time PCR instrument (Agilent Technologies, Santa Clara, Calif., USA) using the SYBR detection protocol. cDNA was calculated by the comparative Ct method, with 18S ribosomal RNA as a control. PCR reactions were performed in triplicates.

[2] = test system: pentose phosphate pathway; experiment: NADP+/NADPH ratios; format: cell-based; details: data not shown
[3] = test system: EGFR-mutant NSCLCs; experiment: ROS quantification (DCFDA and MitoSox Red); format: cell-based; details: 2DG 10 mM or rotenone 5 μM, 24 h
Procedure: To determine cytoplasmic ROS, cells were incubated with 2′,7′-dichlorodihydrofluorescein diacetate (DCFDA, 5 μM; Invitrogen, Carlsbad, Calif., USA) for 30 minutes. Excess DCFDA was removed by washing cells twice with PBS at room temperature; labeled cells were trypsinized, rinsed, and resuspended in PBS. The oxidation of DCFDA to the highly fluorescent 2′,7′-dichloro-fluorescein (DCF), which is proportionate to ROS generation, was analyzed by flow cytometry. To analyze mitochondrial ROS, the cells were then incubated with 5 μM MitoSOX™ reagent (Thermo Scientific, Waltham, Mass., USA) for 10 minutes at 37° C. and trypsinized, washed with PBS, and then resuspended in 200 μL of PBS. Stained cells were then quantified and analyzed on a flow cytometer (BeckmanCoulter, Brea, Calif., USA). Excitation wavelength was 510 nm, and emission wavelength was 580 nm.

[4] = test system: PC9 and H1975 tumor cell xenografts; experiment: Xenograft studies, tumor volume; format: in vivo, SCID mice; details: 2DG 500 mg/kg, intraperitoneal, 5 days a week for 2 weeks; compared with EGFR-WT (A549) xenografts
Procedure: Female severe combined immunodeficiency (SCID) mice were purchased from Charles River Laboratories. All experimental procedures were approved by the Institutional Animal Care and Use Committee of Asan Institute for Life Sciences (protocol 2015-14-241). For each animal, 2×10^6 cells mixed with Matrigel (BD Biosciences) were injected into the flank. Five mice per group were treated when the tumor volumes reached 50 to 100 mm^3 with anisomycin (5 mg/kg, intratumoral, 5 days a week) or 2-deoxy-D-glucose (2DG) 500 mg/kg, intraperitoneal, 5 days a week) for 2 weeks. The length (L) and width (W) of each tumor were measured using calipers, and the tumor volume (TV) was calculated as TV=(L×W^2)/2. To evaluate EGFR-related signaling in xenograft tumors, tumors were harvested after 3 days of drug treatment, lysed, and analyzed with Western blotting.

[5] = test system: EGFR-mutant NSCLCs (PC9 and H1975); experiment: Apoptotic cell death by Annexin V/PI staining and flow cytometry; format: cell-based; details: for apoptotic cell death: EGFR-mutant NSCLCs, 24 h treatment; for rescue from glucose deprivation-induced apoptosis: glucose-free medium, 24 h, SP600125 15 μM
Procedure: (§1) Apoptotic cell death was detected using an Annexin-V/FITC assay. Cells were harvested by trypsinization, washed with PBS, and resuspended in Annexin-V binding buffer (10 mM HEPES, pH 7.4, 140 mM NaCl, 2.5 mM CaCl2) containing Annexin-V FITC and propidium iodide. Stained cells were quantified and analyzed on a flow cytometer (BeckmanCoulter, Brea, Calif., USA).

[6] = test system: EGFR-WT NSCLCs (A549 and H1299); experiment: as above; format: cell-based; details: 24 h treatment
Procedure: as §1

[7] = test system: PC-9/GR and PC-9/ER cells; experiment: Western blot of JNK, EGFR signaling and apoptosis markers in EGFR-TKI-resistant cells; format: cell-based; details: 24 h
Procedure: (§2) Cells were lysed in RIPA lysis buffer containing protease inhibitor cocktail (Thermo Scientific, Waltham, Mass., USA); lysate concentrations were assayed using a BCA assay (Thermo Scientific). Equal amounts of lysates were mixed with Laemmli loading dye and boiled for 10 minutes. Lysates were subjected to SDS-PAGE, and separated proteins were transferred to PVDF membranes (EMD Millipore, Billerica, Mass., USA). Membranes were blocked in Tris-buffered saline (TBS) containing 5% nonfat dry milk and 0.1% Tween 20 (TBS-T) prior to overnight incubation with primary antibody at 4° C. After washing with TBS-T, blots were exposed to appropriate horseradish peroxidase-conjugated secondary antibodies for 1 hour. Proteins-antibody complexes were visualized on Kodak X-ray film using an enhanced chemiluminescence (ECL) detection system (Thermo Scientific, Waltham, Mass., USA).

[8] = test system: EGFR in EGFR-mutant NSCLCs; experiment: Western blot of EGFR levels, EGFR signaling and PARP/caspase-3 cleavage; format: cell-based; details: for EGFR levels / EGFR signaling (AKT and ERK phosphorylation) / PARP and caspase-3 cleavage (apoptosis markers): EGFR-mutant NSCLCs, immunoblot
Procedure: as §2

[9] = test system: PC9 cells; experiment: TCA metabolite pools by LC-MS/MS; format: cell-based; details: 2DG 10 mM or BPTES 10 μM
Procedure: Cells were grown to ˜60% confluence in growth media (RPMI1640, 10% FBS) on 10-cm dishes. After 24 hours, cells were harvested using 1.4 mL of cold methanol/H2O (80/20, v/v) after sequential PBS and H2O washes, and lysed; 100 μL of 5 μM internal standard was added. Metabolites were liquid-liquid extracted from the aqueous phase after adding chloroform. The aqueous phase was dried via vacuum centrifugation, and the sample was reconstituted with 50 μL of 50% methanol prior to LC/MS-MS analysis. The LC/MS-MS system was equipped with an Agilent 1290 HPLC (Agilent Technologies, Santa Clara, Calif., USA), Qtrap 5500 (ABSciex, Concord, Ontario, Canada), and reverse phase column (Synergi fusion RP 50×2 mm). A 3 μL volume was injected into the LC/MS-MS system and ionized with a turbo spray ionization source. Multiple reaction monitoring was used in negative ion mode, and the extracted ion chromatogram (EIC), corresponding to the specific transition for each metabolite was used for quantitation. The area under the curve of each EIC was normalized to that of the internal standard EIC. The peak area ratio of each metabolite to the internal standard was normalized using protein amount in a sample, and then was used for relative comparison.

[10] = test system: PC-9/GR and PC-9/ER cells; experiment: Apoptotic cell death by Annexin V/PI staining and flow cytometry in EGFR-TKI-resistant cells; format: cell-based; details: PC-9/GR and PC-9/ER cells (T790M), 24 h
Procedure: as §1

[11] = test system: IGF1R and MET in EGFR-mutant NSCLCs; experiment: Western blot of other receptor tyrosine kinases; format: cell-based; details: 2DG 10 mM, 24 h
Procedure: as §2

[12] = test system: EGFR-mutant NSCLCs; experiment: Autophagy: LC3-II immunoblot and GFP-LC3 puncta; format: cell-based; details: 2DG 10 mM or anisomycin 5 μM, 24 h
Procedure: as §2

[13] = test system: JNK in EGFR-mutant NSCLCs; experiment: Western blot for JNK and P-JNK; format: cell-based; details: for JNK activation (P-JNK): EGFR-mutant NSCLCs, immunoblot
Procedure: as §2

[14] = test system: PC9 cells; experiment: Quantitation of intracellular ATP; format: cell-based; details: MPYR or AKG 7 mM, 24 h
Procedure: Intracellular ATP concentrations were measured using an ATP Colorimetric/Fluorometric Assay Kit (Biovision Incorporated, Milpitas, Calif., USA) according to the manufacturer's instructions. Briefly, cells were lysed in […] of ATP assay buffer; 50 μL of supernatants were collected and added to a 96-well plate. To each well, 50 μL of ATP assay buffer containing ATP probe, ATP converter, and developer were added. Absorbance was measured at 570 nm.

Structure (SMILES): O=CC[C@@H](O)[C@H](O)[C@H](O)CO [2DG, 2-deoxy-D-glucose]
- EGFR transcriptional level [1]: no significant effect
- NADP+/NADPH ratios [2]: no significant effect
- cytoplasmic and mitochondrial ROS levels [3]: significant increases
- tumor growth of xenografts [4]: robustly diminished the growth
- apoptotic cell death [5]: promoted apoptosis
- apoptotic cell death [6]: only in EGFR-mutant NSCLCs
- JNK activation ([7]; 2DG 10 mM): markedly activated JNK
- EGFR level, AKT and ERK phosphorylation, PARP and caspase-3 cleavage [7]: EGFR level reduction, AKT and ERK phosphorylation inhibition, and PARP and caspase-3 cleavage
- EGFR levels [8]: robust reduction of EGFR levels
- EGFR signaling (AKT and ERK phosphorylation) [8]: inhibition of EGFR signaling
- PARP and caspase-3 cleavage (apoptosis markers) [8]: leading to apoptosis
- EGFR levels upon ATG7 knockdown ([8]; cells expressing ATG7 shRNAs, 2DG 10 mM or anisomycin 5 μM, 24 h): did not reduce EGFR levels
- levels of TCA cycle intermediates [9]: significantly decreased
- apoptosis [10]: significant induction of apoptosis
- IGF1R phosphorylation [11]: significantly decreased
- MET phosphorylation [11]: marginally decreased
- total form of IGF1R and MET [11]: did not change
- LC3-II levels [12]: significant increase in LC3-II levels
- number of GFP-LC3 puncta ([12]; PC9 cells expressing GFP-LC3): profoundly increased

Structure (SMILES): O=C(Cc1ccccc1)Nc1nnc(CCSCCc2nnc(NC(=O)Cc3ccccc3)s2)s1 [BPTES]
- EGFR signaling (AKT and ERK phosphorylation) [8]: had no effect on EGFR signaling
- levels of TCA cycle intermediates [9]: no significant inhibitory effect

Structure (SMILES): OO [H2O2, hydrogen peroxide]
- apoptotic cell death [5]: activated apoptosis in EGFR-mutant NSCLCs in a dose-dependent manner
- EGFR levels [8]: markedly reduced the EGFR levels
- EGFR signaling (AKT and ERK phosphorylation) [8]: inhibited the AKT and ERK phosphorylation
- PARP and caspase-3 cleavage (apoptosis markers) [8]: cleaved the PARP and caspase-3 in a dose-dependent manner
- JNK activation (P-JNK) [13]: activated JNK in a dose-dependent manner

Structure (SMILES): CC(=O)N[C@@H](CS)C(=O)O [NAC, N-acetyl-L-cysteine]
- rescue from 2DG treatment-induced apoptotic cell death ([5]; 2DG 10 mM, MPYR or AKG 7 mM, NAC 4 mM): significantly rescued cell death
- rescue from anisomycin-induced cell death ([5]; anisomycin 24 h in absence or presence of NAC (FIG. 10a)): did not rescue
- rescue from glucose deprivation-induced apoptosis ([5]; MPYR or AKG 7 mM, NAC 4 mM): significantly rescued cell death
- rescue from rotenone-mediated apoptosis ([5]; rotenone 5 μM, methyl-pyruvate or NAC 4 mM): significantly rescued cell death
- EGFR levels and AKT and ERK phosphorylation following glucose deprivation, 2DG, or rotenone treatment ([8]; NAC 4 mM, 24 h): significant recovery
- PARP and caspase-3 cleavage upon glucose deprivation, 2DG, or rotenone treatment ([8]; NAC 4 mM, 24 h): significantly inhibited
- recovery of anisomycin-decreased EGFR signaling or EGFR levels ([8]; anisomycin with NAC (FIG. 10b)): could not recover
- JNK activation induced by glucose deprivation, 2DG, or rotenone treatment ([13]; NAC 4 mM, 24 h): completely inhibited
- inhibition of anisomycin-induced JNK activation ([13]; anisomycin with NAC (FIG. 10c)): could not

Structure (SMILES): CCN(CC)CCCC(C)Nc1ccnc2cc(Cl)ccc12 (centres unmarked) [chloroquine]
- PARP and caspase-3 cleavage upon glucose deprivation, 2DG, or anisomycin treatment ([8]; chloroquine 10 μM, 24 h): robustly inhibited
- reduction in EGFR levels caused by glucose deprivation, 2DG, or anisomycin treatment ([8]; in the presence of chloroquine, 24 h): dramatically inhibited

Structure (SMILES): C=C(C)[C@H]1Cc2c(ccc3c2O[C@@H]2COc4cc(OC)c(OC)cc4[C@@H]2C3=O)O1 [rotenone]
- cytoplasmic and mitochondrial ROS levels [3]: significant increases
- apoptotic cell death [5]: rotenone-mediated apoptosis
- EGFR levels [8]: robustly decreased EGFR levels in both dose- and time-dependent manners
- JNK activation (P-JNK) [13]: significantly induced JNK activation in both dose- and time-dependent manners

Structure (SMILES): OC[C@H]1O[C@H](O[C@H]2O[C@H](CO)[C@@H](O)[C@H](O)[C@H]2O)[C@H](O)[C@@H](O)[C@@H]1O [trehalose]
- EGFR levels [8]: significantly induced EGFR degradation in a dose-dependent manner

Structure (SMILES): O=C(O)CCC(=O)C(=O)O [α-ketoglutarate]
- rescue from glucose deprivation-induced apoptosis ([5]; MPYR or AKG 7 mM, NAC 4 mM): rescue EGFR-mutant NSCLCs from glucose deprivation-induced apoptosis
- recovery of ATP levels reduced by glucose deprivation [14]: significant recovery of ATP levels

— patent publication US20200121645A1, “COMPOSITION FOR PREVENTING OR TREATING EGFR-MUTANT NON-SMALL CELL LUNG CANCER” (THE ASAN FOUNDATION, priority 2018, published 2020)
